Measured values published in patent publication US5077407A, “Substituted 2-[monoannelated (3,4-,4,5-, and 5,6-) pyridylalkylenesulfinyl]benzimidazoles” (The Upjohn Company, priority 1988, dated 1991).
Like-named read-outs stand apart in the source and are kept apart here.

Experiments:
(H^+ -K^+)ATP-ase = target: T1, (H^+ -K^+)ATP-ase (Rattus norvegicus, UniProt P09626); test: in vivo inactivation of (H+-K+)ATP-ase in the rat; conditions: for t1/2 of inhibition of rat gastric (H+ + K+) ATPase activity (duration of action): 10 mg/kg subcutaneously
T1 construct: from tissue; host or cells: stomach of the living rat (subcutaneous dosing)
T1 sequence (P09626 2-1033 limits assumed): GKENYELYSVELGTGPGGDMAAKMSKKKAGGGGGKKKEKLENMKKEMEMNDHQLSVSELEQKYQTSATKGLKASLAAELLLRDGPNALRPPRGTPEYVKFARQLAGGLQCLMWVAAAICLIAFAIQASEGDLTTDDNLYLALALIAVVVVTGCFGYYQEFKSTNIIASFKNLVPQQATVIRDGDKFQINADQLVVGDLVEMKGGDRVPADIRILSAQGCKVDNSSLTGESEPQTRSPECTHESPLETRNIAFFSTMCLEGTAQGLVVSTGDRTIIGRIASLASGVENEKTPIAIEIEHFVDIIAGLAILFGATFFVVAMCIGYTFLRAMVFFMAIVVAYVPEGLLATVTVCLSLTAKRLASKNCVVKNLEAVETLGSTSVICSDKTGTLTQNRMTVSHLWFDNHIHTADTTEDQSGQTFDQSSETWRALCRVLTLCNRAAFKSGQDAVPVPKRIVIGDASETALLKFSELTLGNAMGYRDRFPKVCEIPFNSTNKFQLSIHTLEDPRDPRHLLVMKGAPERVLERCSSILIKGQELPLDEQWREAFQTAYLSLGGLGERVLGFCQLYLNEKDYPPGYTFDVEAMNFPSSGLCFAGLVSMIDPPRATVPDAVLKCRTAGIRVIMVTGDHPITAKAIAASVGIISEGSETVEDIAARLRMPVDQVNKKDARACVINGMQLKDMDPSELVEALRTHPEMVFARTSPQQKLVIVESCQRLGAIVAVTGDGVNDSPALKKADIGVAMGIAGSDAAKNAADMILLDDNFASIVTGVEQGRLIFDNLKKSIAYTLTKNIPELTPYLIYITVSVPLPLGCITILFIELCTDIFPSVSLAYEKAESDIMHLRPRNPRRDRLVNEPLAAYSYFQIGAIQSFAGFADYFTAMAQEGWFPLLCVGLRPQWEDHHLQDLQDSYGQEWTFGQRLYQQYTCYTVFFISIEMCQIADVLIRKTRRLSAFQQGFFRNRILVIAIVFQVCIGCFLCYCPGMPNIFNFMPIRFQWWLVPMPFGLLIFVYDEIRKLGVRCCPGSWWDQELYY
T1 sequence (P18598 whole entry partner): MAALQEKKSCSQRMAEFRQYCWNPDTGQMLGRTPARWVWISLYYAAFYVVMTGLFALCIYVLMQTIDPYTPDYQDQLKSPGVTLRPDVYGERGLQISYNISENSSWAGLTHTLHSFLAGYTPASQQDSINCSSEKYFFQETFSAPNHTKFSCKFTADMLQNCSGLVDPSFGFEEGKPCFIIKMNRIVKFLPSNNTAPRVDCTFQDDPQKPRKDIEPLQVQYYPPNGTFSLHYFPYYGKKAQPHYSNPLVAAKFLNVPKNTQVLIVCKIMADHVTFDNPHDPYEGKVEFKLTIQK
Source text: Certain of the compounds of this invention are preferred because of their long duration of action when administered parenterally (e.g., subcutaneously).

gastric acid secretion = test: rat gastric antisecretory assay; format: in vivo
[1] = system: acid secretion in isolated gastric glands; test: inhibition of acid secretion in isolated gastric glands of the rabbit; format: cell-based; conditions: Oryctolagus cuniculus, read-out: ID50, inhibition of acid secretion
gastric(H^+ -K^+)ATP-ase = target: T2, gastric(H^+ -K^+)ATP-ase (Sus scrofa, UniProt P19156); test: inhibition of K+-dependent ATP hydrolysis by isolated hog gastric membranes enriched with gastric (H+-K+)ATP-ase; format: biochemical; conditions: read-out: ED50, inhibition of K+-dependent ATP hydrolysis
T2 construct: isolated hog gastric membranes; from tissue; host or cells: hog gastric membranes
T2 sequence (P19156 2-1034 limits assumed): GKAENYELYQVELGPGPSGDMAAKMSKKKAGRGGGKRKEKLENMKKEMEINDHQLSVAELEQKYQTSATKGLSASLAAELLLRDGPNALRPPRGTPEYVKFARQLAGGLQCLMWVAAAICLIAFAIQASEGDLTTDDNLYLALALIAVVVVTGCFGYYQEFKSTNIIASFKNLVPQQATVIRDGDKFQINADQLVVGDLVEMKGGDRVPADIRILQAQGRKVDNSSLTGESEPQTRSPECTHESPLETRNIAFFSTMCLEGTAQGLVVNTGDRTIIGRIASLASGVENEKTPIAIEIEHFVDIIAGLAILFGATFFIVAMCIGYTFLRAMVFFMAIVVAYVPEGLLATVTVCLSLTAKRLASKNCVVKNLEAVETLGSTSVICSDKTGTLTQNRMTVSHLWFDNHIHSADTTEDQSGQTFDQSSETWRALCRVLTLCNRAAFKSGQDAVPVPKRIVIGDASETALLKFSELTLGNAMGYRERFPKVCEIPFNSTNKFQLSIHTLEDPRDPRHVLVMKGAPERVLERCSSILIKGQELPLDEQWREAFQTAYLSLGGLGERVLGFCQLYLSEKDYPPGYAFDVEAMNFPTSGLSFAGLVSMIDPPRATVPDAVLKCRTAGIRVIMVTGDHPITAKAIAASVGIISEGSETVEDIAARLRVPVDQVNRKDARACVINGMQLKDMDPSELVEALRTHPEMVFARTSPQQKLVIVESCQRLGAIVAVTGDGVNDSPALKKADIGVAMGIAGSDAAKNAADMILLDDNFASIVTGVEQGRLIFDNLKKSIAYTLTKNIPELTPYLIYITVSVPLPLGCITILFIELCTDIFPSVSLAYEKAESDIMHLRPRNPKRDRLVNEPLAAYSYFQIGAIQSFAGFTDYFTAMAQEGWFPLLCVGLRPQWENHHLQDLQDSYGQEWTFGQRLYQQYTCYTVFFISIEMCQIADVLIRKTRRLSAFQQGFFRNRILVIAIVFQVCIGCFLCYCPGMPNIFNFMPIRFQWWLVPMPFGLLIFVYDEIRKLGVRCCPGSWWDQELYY
T2 sequence (P18434 whole entry partner): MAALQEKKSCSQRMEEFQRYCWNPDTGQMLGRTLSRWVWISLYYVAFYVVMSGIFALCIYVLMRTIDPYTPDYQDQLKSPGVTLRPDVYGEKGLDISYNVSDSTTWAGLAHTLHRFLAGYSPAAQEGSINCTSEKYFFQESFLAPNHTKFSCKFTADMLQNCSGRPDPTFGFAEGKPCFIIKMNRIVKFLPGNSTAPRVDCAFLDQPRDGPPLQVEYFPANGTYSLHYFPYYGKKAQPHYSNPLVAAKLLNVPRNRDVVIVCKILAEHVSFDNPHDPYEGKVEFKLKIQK

**Q.** [O-][S+](Cc1nccc2c1CCCC2)c1nc2ccccc2[nH]1 (stereo not shown) [2-[(5,6,7,8-tetrahydroisoquinolin-1-ylmethyl)sulfinyl]benzimidazole] was tested. Which “t1/2 of inhibition of rat gastric (H+ + K+) ATPase activity (duration of action)” value ((H^+ -K^+)ATP-ase) did it give?
**A.** 96 h

**Q.** What does the source list for COc1ccc2nc([S+]([O-])Cc3nccc4c3CCCC4)[nH]c2c1 (stereo not shown) [Example 4, 2-[(5,6,7,8-Tetrahydroisoquinolin-1-yl)methyl]sulfinyl-5-methoxybenzimidazole]?
**A.** ED50 (gastric acid secretion; sc, administered subcutaneously, read-out: ED50, inhibition of gastric acid secretion): 1.8 mg/kg; IC50 [1]: 0.8 µM

**Q.** Which IC50 (gastric(H^+ -K^+)ATP-ase) does the source give for COc1ccc2nc([S+]([O-])Cc3nccc4c3CCCO4)[nH]c2c1 (stereo not shown) [Example 6, 2-[(6-Azachroman-5-yl)methyl]sulfinyl-5-methoxybenzimidazole] here?
**A.** 10 µM

**Q.** What about the ED50 ((H^+ -K^+)ATP-ase; sc, administered subcutaneously) of the same compound?
**A.** 1 mg/kg

**Q.** What about the ED50 (gastric acid secretion; administered intraduodenally, read-out: ED50, rat gastric antisecretory assay) of the same compound?
**A.** 0.7 mg/kg

**Q.** [O-][S+](Cc1nccc2c1CCCS2)c1nc2ccccc2[nH]1 (stereo not shown) [Example 10, 2-[(5-Thia-5,6,7,8-tetrahydroisoquinolin-1-ylmethyl)sulfinyl]-benzimidazole] was tested. Which “t1/2 of inhibition of rat gastric (H+ + K+) ATPase activity (duration of action)” value ((H^+ -K^+)ATP-ase) did it give?
**A.** 48 h
